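Protocol summary: plate cells (96-well), add compound at 5 concentrations, incubate 48 h, interpolate endpoints linearly. GI50 = concentration required for 50% inhibition of growth.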 Active and inactive are the calls of the source. Rule as the data show it: active = GI50 up to about 1.1 µM and inactive = higher.
How the values were obtained:
Assay in all cases: NCI-60 cell line screen, 48 h
KM12 = system: KM12
OVCAR-8 = system: OVCAR-8
SK-MEL-5 = system: SK-MEL-5
UACC-257 = system: UACC-257
HCC 2998 = system: HCC 2998
OVCAR-3 = system: OVCAR-3
MOLT-4 = system: MOLT-4
NCI-H23 = system: NCI-H23
U-251 = system: U-251
SF-268 = system: SF-268
ACHN = system: ACHN
HOP-92 = system: HOP-92
IGROV-1 = system: IGROV-1
RXF 393 = system: RXF 393
SK-OV-3 = system: SK-OV-3

Measured: GI50

N#Cc1c2ccccc2cn1-c1ccc(F)cc1
inactive: KM12 21.8 µM | OVCAR-8 > 10 µM | SK-MEL-5 > 10 µM | UACC-257 26.9 µM | HCC 2998 43.9 µM | OVCAR-3 19.8 µM | MOLT-4 27.4 µM | NCI-H23 17.7 µM | U-251 39.1 µM | SF-268 24.5 µM | ACHN 27.2 µM | HOP-92 20.6 µM | IGROV-1 67.6 µM

N#CC12CCC1C1CCCCC12N1CCSCC1 (stereo not given)
inactive: KM12 92.3 µM | OVCAR-8 > 100 µM | UACC-257 > 10 µM | HCC 2998 > 100 µM | OVCAR-3 > 100 µM | MOLT-4 81.8 µM | NCI-H23 > 10 µM | U-251 > 100 µM | RXF 393 18.1 µM | ACHN > 100 µM | HOP-92 > 100 µM | IGROV-1 > 100 µM

N#Cc1c2c(c(N=[N+]=[N-])n3c1nc1ccccc13)CCCC2
inactive: KM12 2.29 µM | SK-OV-3 1.8 µM | OVCAR-8 1.69 µM | SK-MEL-5 18.3 µM | UACC-257 1.71 µM | HCC 2998 12.6 µM | OVCAR-3 3.37 µM | MOLT-4 1.62 µM | NCI-H23 2.55 µM | U-251 3.39 µM | SF-268 3.49 µM | RXF 393 1.77 µM | ACHN 2.16 µM | IGROV-1 2.72 µM

O=C(CSc1nnc(-c2ccc(/N=C\c3ccc(Cl)cc3)cc2)o1)Nc1ccc(Cl)cc1
inactive: KM12 > 100 µM | SK-OV-3 > 100 µM | OVCAR-8 > 100 µM | SK-MEL-5 > 100 µM | UACC-257 > 100 µM | MOLT-4 > 100 µM | NCI-H23 > 100 µM | U-251 > 100 µM | SF-268 > 100 µM | RXF 393 > 100 µM | ACHN > 100 µM

CC(=O)NC1C(OCc2ccccc2)OC(COC(=O)CCCCCCCCCCNC(=O)c2cccc3c(=O)c4ccccc4[nH]c23)C(O)C1OC(C)C(=O)NC(C)C(=O)NC(CCC(N)=O)C(N)=O (stereo not given)
inactive: KM12 49.1 µM | SK-OV-3 > 100 µM | OVCAR-8 94.8 µM | SK-MEL-5 37.4 µM | UACC-257 > 100 µM | OVCAR-3 43.8 µM | MOLT-4 47.1 µM | NCI-H23 46.1 µM | U-251 69.5 µM | SF-268 > 100 µM | ACHN 55.8 µM | IGROV-1 50.1 µM

COC(=O)c1cc2c(c(C(=O)OC)c1O)C(=O)C=CC2=O
inactive: KM12 > 43.5 µM | SK-OV-3 > 89.5 µM | OVCAR-8 > 21.4 µM | SK-MEL-5 37.2 µM | UACC-257 > 32.8 µM | HCC 2998 > 43.1 µM | OVCAR-3 > 41.2 µM | NCI-H23 > 31.6 µM | U-251 40.7 µM | SF-268 > 40.6 µM | RXF 393 > 29.1 µM | ACHN > 31.3 µM | HOP-92 8.2 µM | IGROV-1 24.1 µM

COC1OC2COC(C)(C)OC2C(OC(C)=O)C1NC(=O)N(CCCl)N=O (stereo not given)
inactive: KM12 > 100 µM | SK-OV-3 > 100 µM | OVCAR-8 > 100 µM | SK-MEL-5 > 100 µM | UACC-257 > 100 µM | HCC 2998 > 100 µM | OVCAR-3 > 100 µM | MOLT-4 59.6 µM | NCI-H23 > 100 µM | U-251 33.7 µM | SF-268 8.65 µM | RXF 393 > 100 µM | ACHN > 100 µM | IGROV-1 > 100 µM

Cc1cc2c([nH]c3ccccc32)c2c1OC(C)(C)C1C3CC(C)(C)Oc4c(C)cc5c6ccccc6n(c5c43)C21 (stereo not given)
inactive: KM12 > 100 µM | SK-OV-3 > 100 µM | OVCAR-8 > 100 µM | SK-MEL-5 > 100 µM | UACC-257 > 100 µM | HCC 2998 > 100 µM | OVCAR-3 > 100 µM | MOLT-4 > 100 µM | NCI-H23 > 100 µM | U-251 > 100 µM | SF-268 > 100 µM | RXF 393 > 100 µM | ACHN > 100 µM | HOP-92 > 100 µM | IGROV-1 > 100 µM

COc1cc2c(c3c1c(=O)c1ccccc1n3C)C=CC(C)(C)O2 [ACRONINE]
inactive: KM12 > 100 µM | SK-OV-3 > 100 µM | OVCAR-8 > 100 µM | SK-MEL-5 > 100 µM | UACC-257 > 100 µM | OVCAR-3 > 100 µM | MOLT-4 16.2 µM | NCI-H23 33.4 µM | U-251 > 100 µM | SF-268 > 100 µM | RXF 393 25.1 µM | ACHN 45.4 µM | HOP-92 > 100 µM | IGROV-1 58.5 µM

COc1ccc(C2CC(c3cc(C)ccc3O)=NC(N)=N2)cc1 (stereo not given)
inactive: KM12 > 100 µM | SK-OV-3 > 100 µM | OVCAR-8 > 100 µM | UACC-257 > 100 µM | HCC 2998 > 100 µM | OVCAR-3 > 100 µM | MOLT-4 > 100 µM | NCI-H23 > 100 µM | U-251 > 100 µM | SF-268 > 100 µM | RXF 393 > 100 µM | ACHN > 100 µM | HOP-92 > 100 µM | IGROV-1 > 100 µM

Cc1ccc([S+]([O-])C(C)C(Cl)c2ccccc2)cc1 (stereo not given)
inactive: SK-OV-3 > 100 µM | OVCAR-8 78 µM | SK-MEL-5 43.6 µM | UACC-257 34.7 µM | HCC 2998 > 100 µM | OVCAR-3 53.7 µM | MOLT-4 55.7 µM | NCI-H23 72.3 µM | U-251 35.6 µM | SF-268 > 100 µM | RXF 393 53.7 µM | ACHN > 100 µM | HOP-92 > 100 µM | IGROV-1 60.4 µM

O=c1c2ccccc2nc(-c2ccccc2)n1NC(=S)Nc1ccc(Cl)cc1
inactive: KM12 85.9 µM | SK-OV-3 > 100 µM | OVCAR-8 > 100 µM | SK-MEL-5 36.9 µM | UACC-257 75.9 µM | MOLT-4 69 µM | NCI-H23 53.6 µM | U-251 > 100 µM | SF-268 > 100 µM | RXF 393 41.9 µM | ACHN 77.1 µM | HOP-92 > 100 µM | IGROV-1 > 100 µM

COc1ccc2nc(-c3ccccn3)cc(O)c2c1
inactive: KM12 26.7 µM | SK-OV-3 52.7 µM | OVCAR-8 39.8 µM | UACC-257 50.7 µM | MOLT-4 28.8 µM | NCI-H23 41.9 µM | ACHN 92.5 µM | HOP-92 43.9 µM | IGROV-1 44.6 µM

CSc1nc(SC)c2c(C(N)=S)n[nH]c2n1
inactive: KM12 37.4 µM | SK-OV-3 23.6 µM | OVCAR-8 28.8 µM | SK-MEL-5 17.9 µM | UACC-257 21.8 µM | OVCAR-3 22.1 µM | MOLT-4 27 µM | NCI-H23 23.8 µM | U-251 23 µM | SF-268 31.2 µM | RXF 393 22.8 µM | ACHN 24 µM | HOP-92 25.2 µM | IGROV-1 30.4 µM

CCOC(=O)C1C(c2ccc([N+](=O)[O-])cc2)NC(c2ccc([N+](=O)[O-])cc2)C(C(=O)OC)S1(=O)=O (stereo not given)
inactive: KM12 > 100 µM | SK-OV-3 > 100 µM | OVCAR-8 > 100 µM | UACC-257 > 100 µM | HCC 2998 > 100 µM | OVCAR-3 > 100 µM | MOLT-4 > 100 µM | NCI-H23 > 100 µM | U-251 > 100 µM | SF-268 > 100 µM | RXF 393 > 100 µM | ACHN > 100 µM | IGROV-1 > 100 µM

S=c1cc(S)c2c(=S)sc3nc4ccccn4c(=S)c3c2s1
inactive: KM12 > 100 µM | OVCAR-8 33.3 µM | SK-MEL-5 38.5 µM | HCC 2998 39.5 µM | OVCAR-3 28.2 µM | MOLT-4 27.2 µM | NCI-H23 > 100 µM | U-251 54.5 µM | RXF 393 > 100 µM | ACHN > 100 µM | HOP-92 > 100 µM

CCOC(=O)/C(=C\c1ccc(N(CCC#N)CCC#N)cc1)NC(=O)c1cc([N+](=O)[O-])ccc1Cl
inactive: KM12 > 100 µM | SK-OV-3 > 100 µM | OVCAR-8 > 100 µM | SK-MEL-5 > 100 µM | UACC-257 > 100 µM | HCC 2998 > 100 µM | OVCAR-3 63.4 µM | MOLT-4 72.6 µM | NCI-H23 > 100 µM | U-251 > 100 µM | SF-268 > 100 µM | RXF 393 > 100 µM | ACHN > 100 µM | IGROV-1 > 100 µM

COc1ccccc1-n1c(N)c2c(C)c(-c3ccccc3)[nH]c2nc1=S
inactive: KM12 > 100 µM | OVCAR-8 > 100 µM | SK-MEL-5 4.76 µM | UACC-257 > 100 µM | HCC 2998 > 100 µM | OVCAR-3 > 100 µM | MOLT-4 > 100 µM | NCI-H23 79.4 µM | U-251 54.3 µM | ACHN > 100 µM | HOP-92 > 100 µM

[N-]=[N+]=NC1C(Br)C(=O)NC(=O)N1[C@H]1C[C@H](O)[C@@H](CO)O1 (stereo not given in full)
inactive: KM12 > 100 µM | SK-OV-3 > 100 µM | OVCAR-8 > 100 µM | UACC-257 > 100 µM | HCC 2998 > 100 µM | OVCAR-3 > 100 µM | MOLT-4 > 100 µM | NCI-H23 > 100 µM | U-251 > 100 µM | SF-268 > 100 µM | RXF 393 > 100 µM | ACHN > 100 µM | HOP-92 > 100 µM | IGROV-1 > 100 µM

N#C/C(=C/c1cccnc1)C(=O)c1ccccc1
inactive: KM12 > 100 µM | SK-OV-3 > 100 µM | OVCAR-8 > 100 µM | SK-MEL-5 > 100 µM | UACC-257 > 100 µM | HCC 2998 > 100 µM | OVCAR-3 > 100 µM | MOLT-4 > 100 µM | NCI-H23 > 100 µM | U-251 > 100 µM | SF-268 > 100 µM | RXF 393 > 100 µM | ACHN > 100 µM | HOP-92 > 100 µM

— ChEMBL document CHEMBL1201862, “PubChem BioAssay data set” (2004)
